Experimental data reported in patent US8952024B2, “Herbicidal pyrimidone derivatives” (E I du Pont de Nemours and Company, priority 2009, dated 2015).

Legend:
Format in all cases: in vivo
[1] = test system: Surinam grass (Brachiaria decumbens); experiment: Test B pre-/postemergence plant response; details: Postemergence
How it was run: (§1)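 Pre-em in loam/sand; post-em at 1–4 leaf (2–18 cm) in peat mix. Solvent + surfactant formulation. Greenhouse 13–15 d; visual % control vs untreated, 0–100.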

[2] = test system: blackgrass (Alopecurus myosuroides); experiment: Test B pre-/postemergence plant response; details: Postemergence
How it was run: as §1

corn (Zea mays) = experiment: Test B pre-/postemergence plant response; details: Postemergence
How it was run: as §1

[3] = test system: giant foxtail (Setaria faberii); experiment: Test B pre-/postemergence plant response; details: Postemergence
How it was run: as §1

[4] = test system: goosegrass (Eleusine indica); experiment: Test B pre-/postemergence plant response; details: Postemergence
How it was run: as §1

[5] = test system: green foxtail (Setaria viridis); experiment: Test B pre-/postemergence plant response; details: Postemergence
How it was run: as §1

[6] = test system: johnsongrass (Sorghum halepense); experiment: Test B pre-/postemergence plant response; details: Postemergence
How it was run: as §1

[7] = test system: lambsquarters (Chenopodium album); experiment: Test B pre-/postemergence plant response; details: Postemergence
How it was run: as §1

[8] = test system: pigweed (Amaranthus retroflexus); experiment: Test B pre-/postemergence plant response; details: Postemergence
How it was run: as §1

[9] = test system: ragweed (common ragweed, Ambrosia elatior); experiment: Test B pre-/postemergence plant response; details: Postemergence
How it was run: as §1

wild oat (Avena fatua) = experiment: Test B pre-/postemergence plant response; details: Postemergence
How it was run: as §1

rice (Oryza sativa) = experiment: Test B flooded paddy test; details: for Plant response rating, Flood, Rice: 250 g ai/ha, flooded paddy test, visual rating on 0 to 100 scale (0 no effect, 100 complete control) after 13 to 15 days; for Plant response rating, Rice: Flood (flooded paddy test), 13 to 15 days; for Rice plant response rating: Flood, 31 g ai/ha, scale 0 to 100 (0 no effect, 100 complete control)
How it was run: (§2)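 Plants were grown to the 2-leaf stage, then pots were flooded to 3 cm above the soil and compounds were applied directly into the paddy water. That depth was held throughout. After 13 to 15 days in a greenhouse, injury was visually rated against controls on a 0–100 scale.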

[10] = test system: umbrella sedge (Cyperus difformis); experiment: Test B flooded paddy test; details: for Plant response rating, Flood, Sedge, Umbrella: 250 g ai/ha, flooded paddy test, visual rating on 0 to 100 scale (0 no effect, 100 complete control) after 13 to 15 days; for Plant response rating, Sedge, Umbrella: Flood (flooded paddy test), 13 to 15 days; for Sedge, Umbrella plant response rating: Flood, 31 g ai/ha, scale 0 to 100 (0 no effect, 100 complete control)
How it was run: as §2

[11] = 31 g ai/ha, 0 to 100 scale (0 no effect, 100 complete control)
[12] = 62 g ai/ha, scale 0 to 100 (0 no effect, 100 complete control)
[13] = 250 g ai/ha, scale 0 to 100 (0 no effect, 100 complete control), 13 to 15 days
[14] = 125 g ai/ha, scale 0 to 100 (0 no effect, 100 complete control)
[15] = 62 g ai/ha, scale of 0 to 100 where 0 is no effect and 100 is complete control
[16] = 125 g ai/ha, scale 0 to 100, 0 is no effect, 100 is complete control

## CCCn1c(-c2ccsc2)ncc(C(=O)C2=C(O)C3CCC(C3)C2=O)c1=O (stereo not drawn) [Compound 227]
[1]; [11]
  Plant response rating, Surinam Grass: 55
[1]; [12]
  Plant response rating, Surinam Grass: 70
[1]; [13]
  Plant response rating, Surinam Grass: 95
[2]; [11]
  Plant response rating, Blackgrass: 0
[2]; [12]
  Plant response rating, Blackgrass: 0
[2]; [14]
  Plant response rating, Blackgrass: 5
[2]; [13]
  Plant response rating, Blackgrass: 20
Corn (Zea mays); [11]
  Plant response rating, Corn: 20
Corn (Zea mays); [12]
  Plant response rating, Corn: 75
Corn (Zea mays); [14]
  Plant response rating, Corn: 75
Corn (Zea mays); [13]
  Plant response rating, Corn: 85
[3]; [11]
  Plant response rating, Foxtail, Giant: 75
[3]; [12]
  Plant response rating, Foxtail, Giant: 80
[3]; [14]
  Plant response rating, Foxtail, Giant: 90
[3]; [13]
  Plant response rating, Foxtail, Giant: 98
[4]; [11]
  Plant response rating, Goosegrass: 75
[4]; [12]
  Plant response rating, Goosegrass: 75
[4]; [14]
  Plant response rating, Goosegrass: 75
[4]; [13]
  Plant response rating, Goosegrass: 80
[5]; [11]
  Plant response rating, Foxtail, Green: 50
[5]; [12]
  Plant response rating, Foxtail, Green: 90
[5]; [14]
  Plant response rating, Foxtail, Green: 90
[5]; [13]
  Plant response rating, Foxtail, Green: 90
[6]; [11]
  Plant response rating, Johnsongrass: 45
[6]; [12]
  Plant response rating, Johnsongrass: 60
[6]; [14]
  Plant response rating, Johnsongrass: 60
[6]; [13]
  Plant response rating, Johnsongrass: 65
[7]; [11]
  Plant response rating, Lambsquarters: 90
[7]; [12]
  Plant response rating, Lambsquarters: 98
[7]; [14]
  Plant response rating, Lambsquarters: 98
[7]; [13]
  Plant response rating, Lambsquarters: 98
[8]; [11]
  Plant response rating, Pigweed: 80
[8]; [12]
  Plant response rating, Pigweed: 90
[8]; [13]
  Plant response rating, Pigweed: 100
[9]; [11]
  Plant response rating, Ragweed: 60
[9]; [12]
  Plant response rating, Ragweed: 70
[9]; [13]
  Plant response rating, Ragweed: 85
Wild oat (Avena fatua); [11]
  Plant response rating, Oat, Wild: 0
Wild oat (Avena fatua); [12]
  Plant response rating, Oat, Wild: 0
Wild oat (Avena fatua); [13]
  Plant response rating, Oat, Wild: 30
Rice (Oryza sativa)
  Plant response rating, Flood, Rice: 55
  Rice plant response rating: 20
Rice (Oryza sativa); [15]
  Plant response rating, Rice: 30
Rice (Oryza sativa); [16]
  Plant response rating, Rice: 45
[10]
  Plant response rating, Flood, Sedge, Umbrella: 85
  Sedge, Umbrella plant response rating: 80
[10]; [15]
  Plant response rating, Sedge, Umbrella: 85
[10]; [16]
  Plant response rating, Sedge, Umbrella: 85

## COCCn1c(-c2ccsc2)ncc(C(=O)C2=C(O)C3CCC(C3)C2=O)c1=O (stereo not drawn) [Compound 228]
[1]; [11]
  Plant response rating, Surinam Grass: 75
[1]; [12]
  Plant response rating, Surinam Grass: 85
[1]; [13]
  Plant response rating, Surinam Grass: 98
[2]; [11]
  Plant response rating, Blackgrass: 5
[2]; [12]
  Plant response rating, Blackgrass: 35
[2]; [14]
  Plant response rating, Blackgrass: 50
[2]; [13]
  Plant response rating, Blackgrass: 55
Corn (Zea mays); [11]
  Plant response rating, Corn: 80
Corn (Zea mays); [12]
  Plant response rating, Corn: 85
Corn (Zea mays); [14]
  Plant response rating, Corn: 85
Corn (Zea mays); [13]
  Plant response rating, Corn: 90
[3]; [11]
  Plant response rating, Foxtail, Giant: 85
[3]; [12]
  Plant response rating, Foxtail, Giant: 85
[3]; [14]
  Plant response rating, Foxtail, Giant: 95
[3]; [13]
  Plant response rating, Foxtail, Giant: 95
[4]; [11]
  Plant response rating, Goosegrass: 80
[4]; [12]
  Plant response rating, Goosegrass: 80
[4]; [14]
  Plant response rating, Goosegrass: 85
[4]; [13]
  Plant response rating, Goosegrass: 90
[5]; [11]
  Plant response rating, Foxtail, Green: 85
[5]; [12]
  Plant response rating, Foxtail, Green: 90
[5]; [14]
  Plant response rating, Foxtail, Green: 98
[5]; [13]
  Plant response rating, Foxtail, Green: 100
[6]; [11]
  Plant response rating, Johnsongrass: 75
[6]; [12]
  Plant response rating, Johnsongrass: 75
[6]; [14]
  Plant response rating, Johnsongrass: 95
[6]; [13]
  Plant response rating, Johnsongrass: 100
[7]; [11]
  Plant response rating, Lambsquarters: 98
[7]; [12]
  Plant response rating, Lambsquarters: 98
[7]; [14]
  Plant response rating, Lambsquarters: 100
[7]; [13]
  Plant response rating, Lambsquarters: 100
[8]; [11]
  Plant response rating, Pigweed: 98
[8]; [12]
  Plant response rating, Pigweed: 100
[8]; [13]
  Plant response rating, Pigweed: 100
[9]; [11]
  Plant response rating, Ragweed: 70
[9]; [12]
  Plant response rating, Ragweed: 80
[9]; [13]
  Plant response rating, Ragweed: 98
Wild oat (Avena fatua); [11]
  Plant response rating, Oat, Wild: 0
Wild oat (Avena fatua); [12]
  Plant response rating, Oat, Wild: 5
Wild oat (Avena fatua); [13]
  Plant response rating, Oat, Wild: 40
Rice (Oryza sativa)
  Plant response rating, Flood, Rice: 60
  Rice plant response rating: 0
Rice (Oryza sativa); [15]
  Plant response rating, Rice: 20
Rice (Oryza sativa); [16]
  Plant response rating, Rice: 35
[10]
  Plant response rating, Flood, Sedge, Umbrella: 85
  Sedge, Umbrella plant response rating: 65
[10]; [15]
  Plant response rating, Sedge, Umbrella: 75
[10]; [16]
  Plant response rating, Sedge, Umbrella: 75
